Earlier results in patent publication US4559324A, “Polypeptide-diesters, their production and use” (Takeda Chemical Industries, Ltd., priority 1982, dated 1985).

Tested on: Substance P
Settings: S. Rosell and K. Folkers, TIPS, 211 (1982)

For (D-Pro^2, D-Phe^7, D-Trp^9)-Substance P, the “antagonist activity against Substance P” value is listed as “sufficiently active”.

For (D-Pro^2, D-Trp^7, D-Trp^9)-Substance P, the “antagonist activity against Substance P” value is given as “sufficiently active”.
